Experimental data from patent publication EP1156056A1, “5-GLYCOSYLOXY-6-HYDROXYNAPHTHO 2,3-f]QUINOLINE-7,12-DIONE HAVING ANTICANCER ACTIVITIES” (ZAIDAN HOJIN BISEIBUTSU KAGAKU KENKYU KAI, priority 1999, dated 2000).

Test system: all human cancer cells as tested
Test: Inhibition of proliferation of cancer cells in culture, all human cancer cells as tested
Assay type: cell-based
Description: A culture medium for cancer cells was put into test tubes. To the culture medium in each tube, there was transplanted each of such various mouse cancer cells or human cancer cells as shown in Table 1 below. The cells so transplanted were cultivated under the conditions at 37°C in an air atmosphere containing 5 % CO2. To the medium containing the cancer cells so cultivated, there was added said Compounds A, B, D, E or F of this invention at different concentrations, as the test compound. […] As the comparative compound, adriamycin now clinically used was tested to repeat the test in the same way.
Namely, they are mouse colon cancer (colon 26), mouse B-cell lymphoma (LB32T), mouse lymphoma (L-1210), human cervical cancer (HeLa), human acute promyeloleukemia (HL60), human prostatic cancer (PC3), human pudendal squamous cell carcinoma (A431), human pulmonary carcinoma (PC6), human mastocarcinoma (MCF7), human esophageal carcinoma (TT), human prostatic cancer (LNcap) and human colon cancer (DLD-1). […]

IC50: < 100 µg/mL
SMILES: COc1c2c(c3cccnc3c1O[C@@H]1O[C@@H](C)[C@@H](O)[C@@H](O)[C@H]1F)C(=O)c1ccccc1C2=O [5-(2,6-dideoxy-2-fluoro-α-L-talopyranosyloxy)-6-methoxy-naphtho[2,3-f]-quinoline-7,12-dione]
anticancer activity: does not exhibit any appreciable anticancer activity
